In the supplement of paper PMC10307832:

Tests used:
Experiment in all cases: relative viability (nuclei count vs DMSO), 5 days (fraction); higher = more cells survive
Salubrinal + Pemetrexed = compound: O=C(/C=C/c1ccccc1)NC(NC(=S)Nc1cccc2cccnc12)C(Cl)(Cl)Cl [Salubrinal] + Nc1nc2[nH]cc(CCc3ccc(C(=O)N[C@@H](CCC(=O)O)C(=O)O)cc3)c2c(=O)[nH]1 [Pemetrexed] (partner 0.2 µM)
Summary of the method: (§1)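 Lung cancer cell lines were pin-tool dosed in 1536-well plates on the day after seeding, with either a lone drug or a fixed anchor-drug dose plus five library-drug doses (not always all listed) in √10 steps. Nuclei were counted on 4× images after 5 days. Relative viability is the ratio of treated-well to vehicle-well nuclei counts, with each value a median of duplicate plates.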

Salubrinal + Olaparib = compound: O=C(/C=C/c1ccccc1)NC(NC(=S)Nc1cccc2cccnc12)C(Cl)(Cl)Cl [Salubrinal] + O=C(c1cc(Cc2n[nH]c(=O)c3ccccc23)ccc1F)N1CCN(C(=O)C2CC2)CC1 [Olaparib] (partner 8 µM)
Summary of the method: as §1

[1] = compound: Cc1ccc2nc(NCCN)c3ncc(C)n3c2c1 + C[C@]1(O)C[C@@H](c2nc(-c3ccc4ccc(-c5ccccc5)nc4c3)c3c(N)nccn32)C1 [Linsitinib] (partner 1 µM)
Summary of the method: as §1

Salubrinal + Crizotinib = compound: O=C(/C=C/c1ccccc1)NC(NC(=S)Nc1cccc2cccnc12)C(Cl)(Cl)Cl [Salubrinal] + C[C@@H](Oc1cc(-c2cnn(C3CCNCC3)c2)cnc1N)c1c(Cl)ccc(F)c1Cl [Crizotinib] (partner 1 µM)
Summary of the method: as §1

| Cell Line | relative viability (Salubrinal + Pemetrexed; first compound 0.08 µM) | relative viability (Salubrinal + Pemetrexed; first compound 0.253 µM) | relative viability (Salubrinal + Pemetrexed; first compound 0.8 µM) | relative viability (Salubrinal + Pemetrexed; first compound 2.53 µM) | relative viability (Salubrinal + Pemetrexed; first compound 8 µM) | relative viability (Salubrinal + Olaparib; first compound 0.08 µM) | relative viability (Salubrinal + Olaparib; first compound 0.253 µM) | relative viability (Salubrinal + Olaparib; first compound 0.8 µM) | relative viability (Salubrinal + Olaparib; first compound 2.53 µM) | relative viability (Salubrinal + Olaparib; first compound 8 µM) | relative viability ([1]; first compound 0.04 µM) | relative viability ([1]; first compound 0.1265 µM) | relative viability ([1]; first compound 0.4 µM) | relative viability ([1]; first compound 1.265 µM) | relative viability ([1]; first compound 4 µM) | relative viability (Salubrinal + Crizotinib; first compound 0.08 µM) | relative viability (Salubrinal + Crizotinib; first compound 0.253 µM) | relative viability (Salubrinal + Crizotinib; first compound 0.8 µM) | relative viability (Salubrinal + Crizotinib; first compound 2.53 µM) | relative viability (Salubrinal + Crizotinib; first compound 8 µM) |
| --- | --- | --- | --- | --- | --- | --- | --- | --- | --- | --- | --- | --- | --- | --- | --- | --- | --- | --- | --- | --- |
| HARA | 0.254 | 0.285 | 0.327 | 0.273 | 0.254 | 0.834 | 1.17 | 0.907 | 0.682 | 0.634 | 1.01 | 0.933 | 0.885 | 0.791 | 0.927 | 1.21 | 0.911 | 1.03 | 1.14 | 0.868 |
| NCI-H838 | 0.253 | 0.231 | 0.257 | 0.267 | 0.23 | 0.896 | 0.542 | 0.832 | 0.789 | 0.716 | 1.01 | 0.956 | 0.964 | 0.995 | 0.97 | 1.08 | 0.719 | 0.854 | 0.951 | 0.82 |
| NCI-H1755 | 0.379 | 0.513 | 0.401 | 0.638 | 0.395 | 1.01 | 0.937 | 0.922 | 0.857 | 0.893 | 0.989 | 1 | 0.934 | 1.07 | 0.946 | 0.991 | 0.738 | 1 | 0.874 | 0.917 |
| HCC-78 | 0.928 | 0.837 | 0.971 | 0.918 | 0.899 | 1 | 0.964 | 1 | 0.788 | 0.9 | 0.539 | 0.537 | 0.496 | 0.491 | 0.448 | 0.363 | 0.325 | 0.398 | 0.308 | 0.302 |
| IA-LM |  |  |  |  |  | 0.842 | 0.83 | 0.935 | 0.704 | 0.72 | 0.825 | 0.559 | 0.542 | 0.658 | 0.495 | 0.784 | 0.602 | 1.19 | 0.767 | 0.575 |
| NCI-H322M | 0.699 | 0.578 | 0.684 | 0.574 | 0.544 | 0.806 | 0.783 | 0.766 | 0.675 | 0.728 | 0.889 | 0.907 | 0.857 | 0.79 | 0.899 | 0.898 | 0.901 | 1.08 | 0.872 | 0.944 |
| NCI-H3122 | 0.198 | 0.181 | 0.204 | 0.198 | 0.195 | 0.762 | 1.23 | 0.566 | 0.664 | 0.683 | 1 | 1.03 | 0.999 | 0.982 | 1.04 | 0.285 | 0.277 | 0.255 | 0.295 | 0.276 |
| ChaGo-K-1 | 0.266 | 0.274 | 0.241 | 0.253 | 0.375 | 0.46 | 0.404 | 0.449 | 0.395 | 0.383 |  |  |  |  |  | 1.25 | 0.927 | 1.44 | 1.1 | 0.929 |
| NCI-H522 | 1.24 | 0.933 | 1.09 | 1.06 | 1.07 | 0.565 | 0.648 | 0.701 | 0.686 | 0.637 |  |  |  |  |  |  |  |  |  |  |
| NCI-H1299 |  |  |  |  |  | 0.98 | 0.947 | 0.993 | 0.951 | 0.936 | 1.01 | 0.925 | 0.962 | 0.979 | 0.924 | 0.993 | 0.802 | 0.943 | 0.99 | 0.925 |
| NCI-H1650 | 0.354 | 0.3 | 0.398 | 0.383 | 0.376 | 0.941 | 0.705 | 0.811 | 0.751 | 0.804 |  |  |  |  |  | 1.06 | 0.859 | 1.02 | 0.882 | 0.942 |
| SW 900 | 0.508 | 0.423 | 0.505 | 0.485 | 0.468 | 1.04 | 1.07 | 0.892 | 0.793 | 0.801 |  |  |  |  |  |  |  |  |  |  |
| NCI-H727 |  |  |  |  |  | 0.804 | 0.581 | 0.815 | 0.699 | 0.662 | 0.322 | 0.352 | 0.285 | 0.308 | 0.338 | 0.943 | 0.559 | 1.03 | 0.999 | 0.84 |
| NCI-H2170 | 0.258 | 0.273 | 0.318 | 0.258 | 0.257 | 0.65 | 0.632 | 0.668 | 0.641 | 0.636 |  |  |  |  |  | 1.45 | 1.06 | 1.38 | 1.26 | 1.21 |
| NCI-H1395 | 0.96 | 1.09 | 1.03 | 0.984 | 0.718 | 0.445 | 0.448 | 0.411 | 0.466 | 0.437 | 1 | 0.955 | 1.02 | 1.07 | 0.955 |  |  |  |  |  |
| A549 |  |  |  |  |  | 0.226 | 0.344 | 0.438 | 0.31 | 0.287 | 0.791 | 0.557 | 0.598 | 0.423 | 0.534 | 0.864 | 0.491 | 0.902 | 0.702 | 0.695 |
| NCI-H1793 | 1.13 | 0.81 | 1.24 | 0.805 | 0.76 | 1.09 | 0.948 | 0.876 | 0.979 | 0.751 | 1.04 | 0.951 | 0.789 | 0.744 | 0.845 |  |  |  |  |  |
| NCI-H1563 | 0.671 | 0.761 | 0.907 | 0.784 | 0.798 |  |  |  |  |  | 1.31 | 1.02 | 1.1 | 1.39 | 1.21 | 0.853 | 0.859 | 0.878 | 0.851 | 0.962 |
| ABC-1 |  |  |  |  |  | 0.831 | 0.67 | 0.741 | 0.633 | 0.8 | 0.95 | 0.806 | 0.812 | 0.818 | 0.594 | 1.23 | 0.919 | 1.22 | 1.25 | 1.02 |
